Results: publication PMC9116242 (Journal of Enzyme Inhibition and Medicinal Chemistry, 2022)

Experiments:
[1] = tested on: TNF-α production in LPS-induced BV-2 cells; experiment: LPS-induced TNF-α production in BV-2 cells, ELISA; format: cell-based; settings: for Level of TNF-α production: BV-2 cells, 1.0 μg/mL LPS; for inhibition at 5 µM: Mus musculus, BV-2, read-out: Inhibitory rate of TNF-α production
PC12 cells = experiment: Neuroprotective effect against Aβ1-42-induced PC12 cell injury, MTT assay; format: cell-based; settings: 25 μM Aβ1-42 for 48 h, compound at 5 and 10 μM
[2] = PAMPA-BBB permeation assay; settings: Table 3
[3] = tested on: NO production in LPS-induced BV-2 cells; experiment: NO release in BV-2 cells and LPS-stimulated BV-2 cells, Griess reaction; format: cell-based; settings: 5 and 10 μM
BV-2 cells = experiment: Cytotoxicity on BV-2 cells, MTT assay; format: cell-based; settings: 5 and 10 μM
huMAO-B = target: T1, huMAO-B (Homo sapiens, UniProt P27338); experiment: Kinetic study against huMAO-B, Lineweaver-Burk plots; format: biochemical; settings: 5a at 0.15, 0.3 and 0.6 μM
T1 sequence (P27338 1-520): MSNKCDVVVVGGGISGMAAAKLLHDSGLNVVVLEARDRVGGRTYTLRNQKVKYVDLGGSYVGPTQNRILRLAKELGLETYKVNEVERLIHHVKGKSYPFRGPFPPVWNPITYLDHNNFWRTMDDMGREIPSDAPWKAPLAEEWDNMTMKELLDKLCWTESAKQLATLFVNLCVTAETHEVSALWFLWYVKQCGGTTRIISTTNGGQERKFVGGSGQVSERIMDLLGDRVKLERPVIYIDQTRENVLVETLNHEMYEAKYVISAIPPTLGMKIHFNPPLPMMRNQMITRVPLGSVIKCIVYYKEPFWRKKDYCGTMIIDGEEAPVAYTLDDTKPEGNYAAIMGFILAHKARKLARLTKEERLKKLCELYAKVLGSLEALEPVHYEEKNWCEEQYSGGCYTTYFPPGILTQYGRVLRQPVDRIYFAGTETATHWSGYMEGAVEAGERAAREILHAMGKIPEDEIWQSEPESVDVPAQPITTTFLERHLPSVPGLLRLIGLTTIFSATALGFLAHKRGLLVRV

[4] = In vivo PET-CT imaging with [11C]5f in mice; settings: blocker 1.0 mg/kg 5 min before the radiotracer, compared with baseline

Pe [2] [nm/s]	Type of MAO-B inhibition (huMAO-B)	SMILES	Level of TNF-α production ([1]; compound at 5 μM) [pg/mL]	Level of TNF-α production ([1]; compound at 10 μM) [pg/mL]	inhibition at 5 µM [1] [%]	Cell viability, Aβ1-42-induced PC12 cell injury (in words) (PC12 cells)	Effect on release of NO in BV-2 cells without LPS [3]	Cytotoxicity on BV-2 cells (cell viability) (BV-2 cells)	Radio-uptake decrease of [11C]5f in the brain after pre-treatment (blocking) [4] [%]
182	–	COc1cc(/C=C/C(=O)N2CCC(Cc3ccccc3)CC2)ccc1OC1CCCCC1 [Compound 5d, (E)-1-(4-benzylpiperidin-1-yl)-3-(4-(cyclohexyloxy)-3-methoxyphenyl)prop-2-en-1-one]	780	460	54.1	gradually increased in a dose-dependent manner	did not produce an effect on the release of NO	non-toxic	–
125	–	C#CCOc1ccc(/C=C/C(=O)N2CCc3ccccc3C2)cc1OC [Compound 5e, (E)-1-(3,4-dihydroisoquinolin-2(1H)-yl)-3-(3-methoxy-4-(prop-2-yn-1-yloxy)phenyl)prop-2-en-1-one]	805	550	52.6	gradually increased in a dose-dependent manner	did not produce an effect on the release of NO	non-toxic	–
167	–	COc1cc(/C=C/C(=O)N2CCc3ccccc3C2)ccc1OC1CCCCC1 [Compound 5h, (E)-3-(4-(cyclohexyloxy)-3-methoxyphenyl)-1-(3,4-dihydroisoquinolin-2(1H)-yl)prop-2-en-1-one]	740	435	56.5	gradually increased in a dose-dependent manner	did not produce an effect on the release of NO	non-toxic	–
147	competitive	C#CCOc1ccc(/C=C/C(=O)N2CCC(Cc3ccccc3)CC2)cc1OC [Compound 5a, (E)-1-(4-benzylpiperidin-1-yl)-3-(3-methoxy-4-(prop-2-yn-1-yloxy)phenyl)prop-2-en-1-one]	820	520	51.7	–	did not produce an effect on the release of NO	non-toxic	–
204	–	COc1ccc(/C=C/C(=O)N2CCc3ccccc3C2)cc1OC [Compound 5f, (E)-1-(3,4-dihydroisoquinolin-2(1H)-yl)-3-(3,4-dimethoxyphenyl)prop-2-en-1-one]	750	455	55.9	gradually increased in a dose-dependent manner	did not produce an effect on the release of NO	non-toxic	~35
–	–	CCN(C)C(=O)Oc1cccc([C@H](C)N(C)C)c1 [Rivastigmine, reference compound]	–	–	–	–	–	–	~35
